Consider 2 compounds from US20230218716A1, “COMPOSITIONS AND METHODS FOR TREATING ATRIAL FIBRILLATION” (Ohio State Innovation Foudation, priority 2020, published 2023).

Where a name gives a salt, the structure may show the parent alone.

For data set [1], the system named is Langendorff-perfused mouse hearts. The conditions noted are these: VEGF 500 pg/ml, perfused 60 minutes; vehicle 100±9%; n=3 hearts/group. How it is done:
(§1) Langendorff preparations: For optical mapping and ex vivo electrocardiography (ECG) studies, hearts were perfused (at 40-55 mm Hg) in a Langendorff configuration with oxygenated, modified Tyrode's solution (containing, in mM: NaCl 140, KCl 5.4, MgCl2 0.5, dextrose 5.6, HEPES 10; pH adjusted to 7.4) at 37° C. as previously described (Veeraraghavan R, et al. Pflugers Arch. 2015 467:2093-2105; Veeraraghavan R, et al. Elife. 2018 7; Radwanski P B, et al. Cardiovascular research. 2015 106:143-52; Radwanski P B, et al. Heart rhythm. 2010 7:1428-35; Veeraraghavan R and Poelzing S. Cardiovascular research. 2008 77:749-56.

For data set [2] the test system is unchanged. How it is done:
as §1
Optical Mapping and Volume-conducted Electrocardiography (ECG): Optical voltage mapping was performed using the voltage sensitive dye, di-4-ANEPPS (15 μM; ThermoFisher Scientific, Grand Island, N.Y.), as previously described (Veeraraghavan R, et al. Pflugers Arch. 2015 467:2093-2105; Veeraraghavan R, et al. Pflugers Arch. 2016 468:1651-61; Veeraraghavan R and Poelzing S. Cardiovascular research. 2008 77:749-56), in order to quantify conduction velocity. Motion was suppressed by adding blebbistatin (10 μM) to the perfusate. Preparations were excited by 510 nm light and fluorescent signals passed through a 610 nm longpass filter (Newport, Irvine, Calif.) and recorded at 1000 frames/sec using a MiCAM Ultima-L CMOS camera (SciMedia, Costa Mesa, Calif.). Activation time was defined as the time of the maximum first derivative of the AP (Girouard S D, et al. J Cardiovasc Electrophysiol. 1996 7:1024-38), and activation times were fitted to a parabolic surface (Bayly P V, et al. IEEE Trans Biomed Eng. 1998 45:563-71). Gradient vectors evaluated along this surface were averaged along the fast axis of propagation (±15°) to quantify CV.

Data set [3] relates to mice. The conditions noted are these: intraperitoneal VEGF 10 or 50 ng/kg; epinephrine 1.5 mg/kg and caffeine 120 mg/kg. On the procedure: In vivo ECG: Continuous ECG recordings (PL3504 PowerLab 4/35, ADInstruments) were obtained from mice anesthetized with isoflurane (1-1.5%) as previously described (Koleske M, et al. The Journal of general physiology. 2018). Briefly, after baseline recording (5 min.), animals received either intraperitoneal VEGF (10 or 50 ng/kg; Sigma) or vehicle (PBS). After an additional 20 min, animals were injected intraperitoneally with epinephrine (1.5 mg/kg; Sigma) and caffeine (120 mg/kg; Sigma) challenge and ECG recording continued for 40 minutes. ECG recordings were analyzed using the LabChart 8 software (ADInstruments).

Data set [4] deals with mouse hearts. The conditions noted are these: VEGF high dose (500 pg/ml) vs. untreated controls. The text has this:
Primary Antibodies: The following primary antibodies were used for Western immunoblotting and fluorescence microscopy studies: connexin43 (Cx43; rabbit polyclonal; Sigma C6219); connexin40 (Cx40; rabbit polyclonal; ThermoFisher Scientific 36-4900); N-cadherin (N-cad; mouse monoclonal; BD Biosciences 610920); cardiac isoform of the voltage-gated sodium channel (Nav1.5; rabbit polyclonal; custom antibody (Veeraraghavan R, et al. Elife. 2018 7)); and the sodium channel β subunit (β1; rabbit polyclonal; custom antibody (Veeraraghavan R, et al. Elife. 2018 7))
Western Immunoblotting: Whole cell lysates of mouse hearts frozen using liquid nitrogen were prepared as previously described (Veeraraghavan R, et al. Elife. 2018 7; Koleske M, et al. The Journal of general physiology. 2018; Struckman H L, et al. Microsc Microanal. 2020:1-9). These were electrophoresed on 4-15% TGX Stain-free gels (BioRad, Hercules, Calif.) before being transferred onto a nitrocellulose membrane. The membranes were probed with primary antibodies against Cx43, Cx40, Nav1.5 and […] as well as mouse monoclonal antibody against GAPDH (loading control; Fitzgerald Industries, Acton, Mass.), followed by goat anti-rabbit and goat anti-mouse HRP-conjugated secondary antibodies (Promega, Madison, Wis.). Signals were detected by chemiluminescence using SuperSignal West Femto Extended Duration Substrate (ThermoFisher Scientific, Grand Island, N.Y.) and imaged using a Chemidoc MP imager (BioRad, Hercules, Calif.).

In data set [5] the test system is murine atria. How it is done:
Fixation for Transmission Electron Microscopy (TEM): Atria were dissected and fixed overnight in 2% glutaraldehyde at 4° C. for resin embedding and ultramicrotomy as previously described (Veeraraghavan R, et al. Pflugers Arch. 2015 467:2093-2105; Veeraraghavan R, et al. Elife. 2018 7).
Transmission Electron Microscopy (TEM): TEM images of the ID, particularly gap junctions (GJs) and mechanical junctions (MJs), were obtained at 60,000× magnification on a FEI Tecnai G2 Spirit electron microscope. Intermembrane distance at various ID sites was quantified using ImageJ (NIH), as previously described (Veeraraghavan R, et al. Pflugers Arch. 2015 467:2093-2105; Veeraraghavan R, et al. Elife. 2018 7).

The test system of data set [6] is murine atria. The conditions noted are these: VEGF-treated vs. control. The text has this:
(§2) Cryopreservation: Hearts were embedded in optimal cutting temperature compound and frozen using liquid nitrogen for cryosectioning and fluorescent immunolabeling as in previous studies (Veeraraghavan R, et al. Pflugers Arch. 2015 467:2093-2105; Veeraraghavan R, et al. Pflugers Arch. 2016 468:1651-61; Veeraraghavan R, et al. Elife. 2018 7; Veeraraghavan R and Gourdie R. Molecular biology of the cell. 2016 27:3583-3590). These samples were used for light microscopy experiments as described below.
(§3) Fluorescent Immunolabeling: Immuno-fluorescent labeling of cryosections (5 μm thickness) of fresh-frozen myocardium was performed, as previously described (Veeraraghavan R, et al. Pflugers Arch. 2015 467:2093-2105; Veeraraghavan R, et al. Elife. 2018 7; Koleske M, et al. The Journal of general physiology. 2018; Radwanski P B, et al. JACC: Basic to Translational Science. 2016 1:251-266). Briefly, cryosections were fixed with paraformaldehyde (2%, 5 minutes at room temperature), permeabilized with Triton X-100 (0.2% in PBS for 15 minutes at room temperature) and treated with blocking agent (1% BSA, 0.1% triton in PBS for 2 hours at room temperature) prior to labeling with primary antibodies (overnight at 4° C.). Samples were then washed in PBS (3×5 minutes in PBS at room temperature) prior to labeling with secondary antibodies.
For confocal microscopy, samples were then labeled with goat anti-mouse and goat anti-rabbit secondary antibodies conjugated to Alexa 405, Alexa 488, Alexa 568 and Alexa 647 were used (1:8000; ThermoFisher Scientific, Grand Island, N.Y.). Simultaneous labeling with two rabbit or mouse primary antibodies was accomplished by direct fluorophore conjugation of primary antibodies (Zenon labeling kits, ThermoFisher Scientific, Grand Island, N.Y.). Samples were then washed in PBS (3×5 minutes in PBS at room temperature) and mounted in ProLong Gold (Invitrogen, Rockford, Ill.). For STimulated Emission Depletion (STED) microscopy, samples were prepared similar to confocal microscopy but labeled with Alexa 594 and Atto 647N fluorophores. […]

Data set [7] has as its system murine atria.
Description: as §2, §3
For confocal microscopy, samples were then labeled with goat anti-mouse and goat anti-rabbit secondary antibodies conjugated to Alexa 405, Alexa 488, Alexa 568 and Alexa 647 were used (1:8000; ThermoFisher Scientific, Grand Island, N.Y.). Simultaneous labeling with two rabbit or mouse primary antibodies was accomplished by direct fluorophore conjugation of primary antibodies (Zenon labeling kits, ThermoFisher Scientific, Grand Island, N.Y.). Samples were then washed in PBS (3×5 minutes in PBS at room temperature) and mounted in ProLong Gold (Invitrogen, Rockford, Ill.). For STimulated Emission Depletion (STED) microscopy, samples were prepared similar to confocal microscopy but labeled with Alexa 594 and Atto 647N fluorophores. For STochastic Optical Reconstruction Microscopy (STORM), samples were labeled with Alexa 647 and Biotium CF 568 fluorophores. STORM samples were then washed in PBS (3×5 minutes in PBS at room temperature) and optically cleared using Scale U2 buffer (48 hours at 4° C.) prior to imaging (Veeraraghavan R, et al. Pflugers Arch. 2016 468:1651-61; Veeraraghavan R, et al. Elife. 2018 7; Veeraraghavan R and Gourdie R. Molecular biology of the cell. 2016 27:3583-3590).
Single Molecule Localization: STORM imaging was performed using a Vutara 352 microscope (Bruker Nano Surfaces, Middleton, Wis.) equipped with biplane 3D detection, and fast sCMOS imaging achieving 20 nm lateral and 50 nm axial resolution, as previously described (Veeraraghavan R, et al. Elife. 2018 7; Veeraraghavan R and Gourdie R. Molecular biology of the cell. 2016 27:3583-3590; Struckman H L, et al. Microsc Microanal. 2020:1-9; Bonilla I M, et al. Sci Rep. 2019 9:10179). Individual fluorophore molecules were localized with a precision of 10 nm. The two-color channels were precisely registered using localized positions of several TetraSpeck Fluorescent Microspheres (ThermoFisher Scientific, Carlsbad, Calif.) scattered throughout the field of view, with the procedure being repeated at the start of each imaging session. Protein clustering and spatial organization were quantitatively assessed from single molecule localization data using STORM-RLA, a machine learning-based cluster analysis approach, as previously described (Veeraraghavan R and Gourdie R. Molecular biology of the cell. 2016 27:3583-3590).
The source holds these as a separate data set.

The conditions of data set [8]: cited from earlier work.
Setting [9] is: both low (100 pg/ml) and high (500 pg/ml) doses vs. untreated controls.

Turning to VEGF, the “Levels of FITC-dextran extravasated relative to vehicle controls” value in data set [1] is recorded as 201±7%. Further, in data set [2] (30 minutes of VEGF perfusion (100 and 500 pg/ml) vs. untreated control), the P wave duration result is on record as “significant P-wave prolongation”. Also, in data set [2] (VEGF 100 and 500 pg/ml, 30 minutes, 10 s burst pacing at 50, 40, 30 ms), the “Incidence of burst pacing-induced atrial arrhythmias” value is on record as “increased the incidence of burst pacing-induced atrial arrhythmias in dose-dependent fashion”. Besides, the Atrial conduction velocity entry in data set [2] (VEGF 100 and 500 pg/ml, 30 minutes, paced at cycle length 100 ms) is “significantly and dose-dependently decreased”. Further, the “Atrial arrhythmias in vivo after caffeine and epinephrine challenge” value in data set [3] was “elicited atrial arrhythmias in VEGF-treated mice but not in untreated controls”. For the same compound, in data set [4], the “Expression level of Cx43” value is given as “no significant difference”, the “Expression level of N-cad” value is “no significant difference”, the “Expression level of Nav1.5” value is listed as “no significant difference” and the “Expression level of β1” value is “no significant difference”. For the same compound, the “Expression of Cx40” value in data set [4] is reported as “slightly elevated”. Also, in data set [5] (setting [9]), the “Intermembrane distance at GJ-adjacent sites” value was “significantly increased” and the “Intermembrane distance at MJ-adjacent sites” value is “significantly increased”. In addition, the “Dose dependence of ID swelling” value in data set [5] (low vs. high dose of VEGF) is “dose-dependent fashion at GJ-adjacent perinexi but not near MJ”. In addition, in data set [6] (<100 nm from Cx43), the “Nav1.5 enrichment ratio near Cx43 (STED)” value was “significantly decreased” and the “β1 enrichment ratio near Cx43 (STED)” value was “significantly decreased”. The “Nav1.5 enrichment ratio at N-cad-rich sites (STED)” value in data set [6] was “trended towards a decrease”. Also, the “β1 density at N-cad-rich plicate ID sites” value in data set [7] (VEGF treated hearts vs. control) is on record as “without significant changes”. The “Nav1.5 enrichment ratio at N-cad-rich plicate ID sites” value in data set [7] (VEGF treated hearts, control 6.5±0.4) was found to be 4.6±0.4. Besides, in data set [7] (VEGF treated hearts, control 10.5±0.3), the “Nav1.5 enrichment ratio at Cx43-adjacent perinexal sites” value is given as 6.9±0.8. The “β1 enrichment ratio at Cx43-adjacent perinexal sites” value in data set [7] (VEGF treated hearts, control 10.7±1.9) worked out at 5.4±0.7. Also, the “% of ID-localized Nav1.5 signal at N-cad-rich plicate ID sites” value in data set [7] (VEGF treated hearts, control 35±2%) worked out at 26±3%. In data set [7] (VEGF treated hearts, control 59±2%), the “% of ID-localized Nav1.5 signal at Cx43-adjacent perinexal sites” value was found to be 32±3%. Also, the “% of ID-localized β1 signal at Cx43-adjacent perinexal sites” value in data set [7] (VEGF treated hearts, control 69±4%) is 49±3%.

As to `O[C@H](c1cc(C(F)(F)F)nc2c(C(F)(F)F)cccc12)[C@@H]1CCCCN1` (relative stereo) [Mefloquine hydrochloride, (R*,S*)-(±)-alpha-2-piperidinyl-2,8-bis(trifluoromethyl)-4-quinolinemethanol], the Solubility in ethanol entry in data set [8] (ethanol) was “soluble”. Further, the Solubility in water result in data set [8] (water) is reported as “slightly soluble”.
